Measurements published in ChEMBL document CHEMBL1201862, “PubChem BioAssay data set” (2004).
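Dose response: 5 concentrations. Exposure: 48 h. Format: 96-well plates. Endpoint: linear interpolation; highest concentration if not reached. At the GI50, growth is halved.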 Calls of active or inactive are those of the source. Cut-off read from the data, not from the text of the source: active = GI50 up to about 1.1 µM and inactive = higher.

How the values were obtained:
Assay in all cases: growth of human tumour cells (NCI), 48 h
[1] = test system: OVCAR-4
[2] = test system: KM12
[3] = test system: M14
[4] = test system: U-251
[5] = test system: SK-MEL-2
[6] = test system: SF-295
[7] = test system: HCT-116
[8] = test system: LOX IMVI
[9] = test system: MDA-N
[10] = test system: MOLT-4
[11] = test system: SK-MEL-28
[12] = test system: Hs-578T
[13] = test system: UO-31
[14] = test system: NCI-H522
[15] = test system: HCT-15
[16] = test system: MCF7
[17] = test system: 786-0
[18] = test system: RPMI-8226
[19] = test system: EKVX
[20] = test system: OVCAR-3

Row | Compound | GI50 [1] | GI50 [2] | GI50 [3] | GI50 [4] | GI50 [5] | GI50 [6] | GI50 [7] | GI50 [8] | GI50 [9] | GI50 [10] | GI50 [11] | GI50 [12] | GI50 [13] | GI50 [14] | GI50 [15] [µM] | GI50 [16] | GI50 [17] | GI50 [18] | GI50 [19] | GI50 [20]
1 | CCOC(=O)/C=C(/C(=O)OCC)n1cnc2c(=O)[nH]c(NC(C)=O)nc21 | > 100 µM (inactive) | > 100 µM (inactive) | > 100 µM (inactive) | > 100 µM (inactive) | > 100 µM (inactive) | > 100 µM (inactive) | > 100 µM (inactive) | > 100 µM (inactive) | > 100 µM (inactive) | > 100 µM (inactive) | > 100 µM (inactive) | > 100 µM (inactive) | > 100 µM (inactive) | > 100 µM (inactive) | > 100 | > 100 µM (inactive) | > 100 µM (inactive) | > 100 µM (inactive) | > 100 µM (inactive) | > 100 µM (inactive)
2 | C=CCOC(=O)C1=C(C)N=C2N[C@H](CCCCCCCCC)C[C@@H]3CCC1N23 (stereo not given in full) | 21 µM (inactive) | 34 µM (inactive) | 18.7 µM (inactive) | 20.9 µM (inactive) | 19.8 µM (inactive) | 34.9 µM (inactive) | 18.8 µM (inactive) | 21.6 µM (inactive) | 18.4 µM (inactive) | 30.1 µM (inactive) | 21.7 µM (inactive) | 21.5 µM (inactive) | 17.1 µM (inactive) | 16.7 µM (inactive) | 21.3 | 18 µM (inactive) | 20 µM (inactive) | 30.7 µM (inactive) | 22.4 µM (inactive) | 19.4 µM (inactive)
3 | CC12CC1C(c1cccc([N+](=O)[O-])c1)(c1cccc([N+](=O)[O-])c1)N=N2 (stereo not given) | 23.1 µM (inactive) | 19.6 µM (inactive) | 38.9 µM (inactive) | 18.7 µM (inactive) | 44.7 µM (inactive) | 57 µM (inactive) | 15.8 µM (inactive) | 13.2 µM (inactive) | 23.2 µM (inactive) | 28.3 µM (inactive) | 22.1 µM (inactive) | 21.9 µM (inactive) | 10.8 µM (inactive) | 6.7 µM (inactive) | 20.4 | 35.6 µM (inactive) | 20.7 µM (inactive) | 2.96 µM (inactive) | 37.7 µM (inactive) | 27.4 µM (inactive)
4 | CC(C)=CCc1[nH]c2ccccc2c1C1=C(O)C(=O)C(c2c(CC=C(C)C)[nH]c3ccccc23)=C(O)C1=O | 3.58 µM (inactive) | 1.04 µM (active) | 3.24 µM (inactive) | 0.587 µM (active) | 1.64 µM (inactive) | 1.03 µM (active) | 1.5 µM (inactive) | 1.43 µM (inactive) | 1.04 µM (active) | 1.96 µM (inactive) | 0.757 µM (active) | 1.04 µM (active) | 1.49 µM (inactive) | 2.2 µM (inactive) | 1.33 | 2.26 µM (inactive) | 1.56 µM (inactive) | 2.3 µM (inactive) | 2.19 µM (inactive) | 1.48 µM (inactive)
5 | C=C1CCCC(C)(C)[C@H]1C/C=C1\CCOC1=O | 11 µM (inactive) | 17.9 µM (inactive) | 17.5 µM (inactive) | 16.8 µM (inactive) | 63.7 µM (inactive) | 17.1 µM (inactive) | 12.6 µM (inactive) | 11.5 µM (inactive) | 17.9 µM (inactive) | 10.6 µM (inactive) | 16.1 µM (inactive) | 16.9 µM (inactive) | 16.1 µM (inactive) | 18 µM (inactive) | 14.5 | 12.8 µM (inactive) | 14.7 µM (inactive) | 6.62 µM (inactive) | 15.9 µM (inactive) | 15 µM (inactive)
6 | CC1=NN(c2nc(N)nc(-c3ccccc3S(N)(=O)=O)n2)C(C)(C)C1 | 13.2 µM (inactive) | 29.8 µM (inactive) | 6.7 µM (inactive) | 8.51 µM (inactive) | 9.2 µM (inactive) | 5.64 µM (inactive) | 10.2 µM (inactive) | 10.3 µM (inactive) | 26.6 µM (inactive) | 5.19 µM (inactive) | 27.9 µM (inactive) | 74.1 µM (inactive) | 3.92 µM (inactive) | 24.3 µM (inactive) | 2.76 | 22.7 µM (inactive) | 8.79 µM (inactive) | 27.2 µM (inactive) | 36.1 µM (inactive) | 16.3 µM (inactive)
7 | CCCC(=O)NC1=C(Cl)C(=O)c2ccccc2C1=O | 4.51 µM (inactive) | 3.01 µM (inactive) | 3.13 µM (inactive) | 3.78 µM (inactive) | 2.39 µM (inactive) | 4.99 µM (inactive) | 1.73 µM (inactive) | 2.51 µM (inactive) | 4.11 µM (inactive) | 2.56 µM (inactive) | 4.33 µM (inactive) | 5.25 µM (inactive) | 2.96 µM (inactive) | 1.13 µM (inactive) | 1.68 | 2.39 µM (inactive) | 4.53 µM (inactive) | 1.48 µM (inactive) | 3.72 µM (inactive) | 2.29 µM (inactive)
